Measured values taken from patent US6319702A, “Nucleic acids encoding mutant human carboxypeptidase A enzymes” (Glaxo Wellcome, Inc., priority 1993, dated 2001).
Where two headings read alike, the source gives them in different places.

Test: Stability and biodistribution of prodrugs in vivo (HPLC of plasma and tissues)
Parameters: species or system mice (CD-1 nude; BALB/C where indicated)
Conditions: 50 mg/kg i.p. or i.v., CD-1 nude mice
[1] = mouse, cecum, 50 mg/kg, CECUM, 30 min, read-out: stability: percentage of material observed as intact prodrug, cecum
[2] = mouse, kidney, 50 mg/kg, KIDNEY, 30 min, read-out: stability: percentage of material observed as intact prodrug, kidney
[3] = mouse, large intestine, 50 mg/kg, LARGE INTESTINE, 30 min, read-out: stability: percentage of material observed as intact prodrug, large intestine
[4] = mouse, liver, 50 mg/kg, LIVER, 30 min, read-out: stability: percentage of material observed as intact prodrug, liver (converted)
[5] = mouse, plasma, 50 mg/kg, PLASMA, 30 min, read-out: concentration of prodrug in plasma
[6] = mouse, plasma, 50 mg/kg, PLASMA, 30 min, read-out: stability: percentage of material observed as intact prodrug, plasma
[7] = mouse, plasma, 50 mg/kg, PLASMA, 120 min, read-out: concentration of prodrug in plasma
[8] = mouse, plasma, 50 mg/kg, PLASMA, 120 min, read-out: stability: percentage of material observed as intact prodrug, plasma
[9] = mouse, small intestine, 50 mg/kg, SMALL INTESTINE, 30 min, read-out: stability: percentage of material observed as intact prodrug, small intestine
[10] = mouse, small intestine, 50 mg/kg, SMALL INTESTINE, 120 min, read-out: stability: percentage of material observed as intact prodrug, small intestine
[11] = mouse, tumor, 50 mg/kg, TUMOR, 30 min, read-out: stability: percentage of material observed as intact prodrug, tumor

Compound: Cc1nc2ccc3ccc(CNc4ccc(C(=O)N[C@@H](CCC(=O)O)C(=O)N[C@@H](CCC(=O)O)C(=O)O)c(F)c4)cc3c2c(=O)[nH]1 [Prodrug 1, N-(N-(4(((1,2-dihydro-3-methyl-1-oxobenzo(F)quinazolin-9-yl)methyl)amino)-2-fluorobenzoyl)-L-glutam-1-yl)-L-glutamic acid]
- concentration of prodrug in cecum (CECUM, 30 min): 6.0 nmol/g
- concentration of prodrug in cecum (CECUM, 120 min): 1.2 nmol/g
- concentration of prodrug in kidney (KIDNEY, 30 min): 175.8 nmol/g
- concentration of prodrug in kidney (KIDNEY, 120 min): 70.3 nmol/g
- concentration of prodrug in large intestine (LARGE INTESTINE, 30 min): 12.2 nmol/g
- concentration of prodrug in large intestine (LARGE INTESTINE, 120 min): 1.0 nmol/g
- concentration of prodrug in liver (LIVER, 30 min): 770.3 nmol/g
- concentration of prodrug in liver (LIVER, 120 min): 579.8 nmol/g
- concentration of prodrug in small intestine (SMALL INTESTINE, 30 min): 48.2 nmol/g
- concentration of prodrug in small intestine (SMALL INTESTINE, 120 min): 55.6 nmol/g
- concentration of prodrug in spleen (SPLEEN, 30 min): 23.4 nmol/g
- concentration of prodrug in spleen (SPLEEN, 120 min): 1.8 nmol/g
- concentration of prodrug in tumor (TUMOR, 30 min): 6.0 nmol/g
- concentration of prodrug in tumor (TUMOR, 120 min): 1.2 nmol/g
- remaining at 0.5 h [1]: 96%
- remaining at 2 h (mouse, cecum, 50 mg/kg, CECUM, 120 min, read-out: stability: percentage of material observed as intact prodrug, cecum): 76%
- remaining at 0.5 h [2]: 98%
- remaining at 2 h (mouse, kidney, 50 mg/kg, KIDNEY, 120 min, read-out: stability: percentage of material observed as intact prodrug, kidney): 97%
- remaining at 0.5 h [3]: 93%
- remaining at 2 h (mouse, large intestine, 50 mg/kg, LARGE INTESTINE, 120 min, read-out: stability: percentage of material observed as intact prodrug, large intestine): 100%
- remaining at 0.5 h [4]: 98%
- remaining at 2 h (mouse, liver, 50 mg/kg, LIVER, 120 min, read-out: stability: percentage of material observed as intact prodrug, liver): 97%
- concentration at 0.5 h [5]: 41.5 µM
- remaining at 0.5 h [6]: 99%
- concentration at 2 h [7]: 4.2 µM
- remaining at 2 h [8]: 100%
- remaining at 0.5 h [9]: 83%
- remaining at 2 h [10]: 68%
- remaining at 0.5 h (mouse, spleen, 50 mg/kg, SPLEEN, 30 min, read-out: stability: percentage of material observed as intact prodrug, spleen): 100%
- remaining at 2 h (mouse, spleen, 50 mg/kg, SPLEEN, 120 min, read-out: stability: percentage of material observed as intact prodrug, spleen): 100%
- remaining at 0.5 h [11]: 96%
- remaining at 2 h (mouse, tumor, 50 mg/kg, TUMOR, 120 min, read-out: stability: percentage of material observed as intact prodrug, tumor): 76%

Compound: Cc1nc2ccc3ccc(CNc4ccc5c(c4)CN([C@@H](CCC(=O)O)C(=O)N[C@@H](Cc4ccccc4)C(=O)O)C5=O)cc3c2c(=O)[nH]1 [Prodrug 2, N-((S)-4-carboxy-2-(5-(((1,2-dihydro-3-methyl-1-oxoxbenzo(F)quinazolin-9-yl)methyl)amino)-1-oxo-2-isoindolinyl)butanoyl)-L-phenylalanine]
- concentration of prodrug in cecum (CECUM, 30 min): 2.7 nmol/g
- concentration of prodrug in kidney (KIDNEY, 30 min): 9.0 nmol/g
- concentration of prodrug in kidney (KIDNEY, 90 min): 1.3 nmol/g
- concentration of prodrug in kidney (KIDNEY, 180 min): 0.2 nmol/g
- concentration of prodrug in large intestine (LARGE INTESTINE, 30 min): 5.9 nmol/g
- concentration of prodrug in large intestine (LARGE INTESTINE, 90 min): 0.7 nmol/g
- concentration of prodrug in large intestine (LARGE INTESTINE, 180 min): 1.3 nmol/g
- concentration of prodrug in liver (LIVER, 30 min): 42.0 nmol/g
- concentration of prodrug in liver (LIVER, 90 min): 9.1 nmol/g
- concentration of prodrug in liver (LIVER, 180 min): 0.8 nmol/g
- concentration (PLASMA, 30 min, 50 mg/kg, 30 min, read-out: concentration of prodrug in plasma): 22.1 µM
- concentration of prodrug in small intestine (SMALL INTESTINE, 30 min): 170.2 nmol/g
- concentration of prodrug in small intestine (SMALL INTESTINE, 120 min): 17.6 nmol/g
- concentration of prodrug in tumor (TUMOR, 30 min): 2.7 nmol/g
- remaining at 0.5 h [1]: 96%
- remaining at 0.5 h [2]: 96%
- remaining at 1.5 h (mouse, kidney, 50 mg/kg, KIDNEY, 90 min, read-out: stability: percentage of material observed as intact prodrug, kidney): 98%
- remaining at 3 h (mouse, kidney, 50 mg/kg, KIDNEY, 180 min, read-out: stability: percentage of material observed as intact prodrug, kidney): 100%
- remaining at 0.5 h [3]: 93%
- remaining at 1.5 h (mouse, large intestine, 50 mg/kg, LARGE INTESTINE, 90 min, read-out: stability: percentage of material observed as intact prodrug, large intestine): 60%
- remaining at 3 h (mouse, large intestine, 50 mg/kg, LARGE INTESTINE, 180 min, read-out: stability: percentage of material observed as intact prodrug, large intestine): 52%
- remaining at 0.5 h [4]: 96%
- remaining at 1.5 h (mouse, liver, 50 mg/kg, LIVER, 90 min, read-out: stability: percentage of material observed as intact prodrug, liver): 100%
- remaining at 3 h (mouse, liver, 50 mg/kg, LIVER, 180 min, read-out: stability: percentage of material observed as intact prodrug, liver): 100%
- concentration at 0.5 h [5]: 33 µM
- remaining at 0.5 h [6]: 100%
- concentration at 1.5 h (mouse, plasma, 50 mg/kg, PLASMA, 90 min, read-out: concentration of prodrug in plasma): 5.5 µM
- remaining at 1.5 h (mouse, plasma, 50 mg/kg, PLASMA, 90 min, read-out: stability: percentage of material observed as intact prodrug, plasma): 98%
- concentration at 2 h [7]: 0.3 µM
- remaining at 2 h [8]: 93%
- concentration at 3 h (mouse, plasma, 50 mg/kg, PLASMA, 180 min, read-out: concentration of prodrug in plasma): 3.5 µM
- remaining at 3 h (mouse, plasma, 50 mg/kg, PLASMA, 180 min, read-out: stability: percentage of material observed as intact prodrug, plasma): 97%
- remaining at 0.5 h [9]: 91%
- remaining at 2 h [10]: 47%
- remaining at 0.5 h [11]: 98%
